For 20 compounds, T/C results are on record in PubChem BioAssay AID206 (DTP/NCI, 2004).

The assay concerns nude mice, HT29 intrarenal xenograft, tumor weight T/C. The assay is described as follows: NCI In Vivo Anticancer Drug Screen. Data for tumor model HT29;CX-1 Human Adenocarcinoma (MER+) (intrarenal inoculation) in NU/NU Swiss (nude) mice. The conditions noted are these: endpoint: mean tumor weight change, higher = larger tumour. The essentials: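 Mice with transplanted tumors are dosed with compound while controls get vehicle only. Survival or tumor burden is then assessed per group, and the treated value is expressed relative to control.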

The mark [1] stands for this setting: dose: 75.0 mg/kg/injection, schedule: Q04DX004 (sc), vehicle: Klucel (hydroxypropylcellulose) (HPC).
Where [2] appears, read: dose: 300.0 mg/kg/injection, schedule: Q04DX004 (sc), vehicle: suspension in saline.
The mark [3] stands for this setting: dose: 600.0 mg/kg/injection, schedule: Q04DX004 (sc), vehicle: suspension in saline.
The mark [4] stands for this setting: dose: 1200.0 mg/kg/injection, schedule: Q04DX004 (sc), vehicle: suspension in saline.

Values joined by “and” are separate entries in the source; they are usually repeats but may differ in a detail not shown here. Identical values can stand only once. Inconclusive results are not listed.

`C=C(C(=O)O)C(N)C(=O)O` (stereo not drawn): the T/C reads like this: (dose: 225.0 mg/kg/injection, schedule: Q04DX004 (sc), vehicle: suspension in saline) 114 % of control; (dose: 450.0 mg/kg/injection, schedule: Q04DX004 (sc), vehicle: suspension in saline) 64 % of control; (dose: 900.0 mg/kg/injection, schedule: Q04DX004 (sc), vehicle: suspension in saline) 109 % of control.
On to `CNC(=O)c1cccc2c(Nc3ccc(NS(C)(=O)=O)cc3OC)c3cccc(C)c3nc12`, for which the T/C is, setting by setting: (dose: 50.0 mg/kg/injection, schedule: Q04DX004 (sc), vehicle: other) 72 % of control; (dose: 100.0 mg/kg/injection, schedule: Q04DX004 (sc), vehicle: other) 39 % of control.
On to `O=CN(SSN(C=O)C1CCCCC1)C1CCCCC1`, for which the T/C reads like this: (dose: 100.0 mg/kg/injection, schedule: Q01DX010 (sc), vehicle: saline with Tween-80) 36 % of control; (dose: 200.0 mg/kg/injection, schedule: Q01DX010 (sc), vehicle: saline with Tween-80) 178 % of control; (dose: 400.0 mg/kg/injection, schedule: Q01DX010 (sc), vehicle: saline with Tween-80) 85 % of control; (dose: 800.0 mg/kg/injection, schedule: Q01DX010 (sc), vehicle: saline with Tween-80) 90 % of control.
For the compound `CCCCNCCCNCCCNC(=O)c1csc(-c2csc(CCNC(=O)C(NC(=O)C(C)C(O)C(C)NC(=O)C(NC(=O)c3nc(C(CC(N)=O)NCC(N)C(N)=O)nc(N)c3C)C(OC3OC(CO)C(O)C(O)C3OC3OC(CO)C(O)C(OC(N)=O)C3O)c3cnc[nH]3)C(C)O)n2)n1` (stereo not drawn), the T/C runs as follows: (dose: 8.0 mg/kg/injection, schedule: Q01DX010 (sc), vehicle: saline) 69 % of control and 83 % of control; (dose: 16.0 mg/kg/injection, schedule: Q01DX010 (sc), vehicle: saline) 76 % of control and 80 % of control; (dose: 32.0 mg/kg/injection, schedule: Q01DX010 (sc), vehicle: saline) 66 % of control and 68 % of control; (dose: 64.0 mg/kg/injection, schedule: Q01DX010 (sc), vehicle: saline) 23 % of control and 25 % of control.
`c1csc(C[N+]23CN4CN(CN(C4)C2)C3)c1`: the T/C (dose: 100.0 mg/kg/injection, schedule: Q04DX004 (sc), vehicle: saline) was 76 % of control; the T/C (dose: 200.0 mg/kg/injection, schedule: Q04DX004 (sc), vehicle: saline) is 97 % of control; the T/C (dose: 400.0 mg/kg/injection, schedule: Q04DX004 (sc), vehicle: saline) was 61 % of control.
For `O=C1C2(Cl)C3(Cl)C4(Cl)C(Cl)(Cl)C5(Cl)[C@]3(Cl)C1(Cl)[C@]5(Cl)C24Cl` (stereo partly drawn), the T/C under setting [1] is 60 % of control.
In the case of `CC(=O)Nc1ccc(S(=O)(=O)CO)cc1`, the T/C runs as follows: (dose: 225.0 mg/kg/injection, schedule: Q04DX004 (sc), vehicle: saline with Tween-80) 73 % of control; (dose: 450.0 mg/kg/injection, schedule: Q04DX004 (sc), vehicle: saline with Tween-80) 57 % of control.
In the case of `CSC1SCC2C(=O)N(C)C(C(C)C)C(=O)OCC(NC(=O)c3cnc4ccccc4n3)C(=O)NC(C)C(=O)N(C)C1C(=O)N(C)C(C(C)C)C(=O)OCC(NC(=O)c1cnc3ccccc3n1)C(=O)NC(C)C(=O)N2C` (stereo not drawn), the T/C by setting is: (dose: 30.0 micrograms/kg/injection, schedule: Q01DX010 (sc), vehicle: suspension in saline) 88 % of control; (dose: 60.0 micrograms/kg/injection, schedule: Q01DX010 (sc), vehicle: saline) 49 % of control; (dose: 120.0 micrograms/kg/injection, schedule: Q01DX010 (sc), vehicle: saline) 35 % of control; (dose: 240.0 micrograms/kg/injection, schedule: Q01DX010 (sc), vehicle: saline) 12 % of control.
Regarding `COCC(O)Cn1ccnc1[N+](=O)[O-]` (stereo not drawn), the T/C by setting is: under setting [2], 86 % of control; under setting [3], 80 % of control; under setting [4], 75 % of control.
Regarding `C#C[C@]1(O)CC[C@H]2[C@@H]3CCc4cc(O)ccc4[C@H]3CC[C@@]21C`, the T/C is 91 % of control (dose: 600.0 mg/kg/injection, schedule: Q04DX004 (sc), vehicle: Klucel (hydroxypropylcellulose) (HPC)); 83 % of control (dose: 1200.0 mg/kg/injection, schedule: Q04DX004 (sc), vehicle: Klucel (hydroxypropylcellulose) (HPC)); 80 % of control (dose: 2400.0 mg/kg/injection, schedule: Q04DX004 (sc), vehicle: Klucel (hydroxypropylcellulose) (HPC)).
With `CC(=O)N(C)c1ccc(Nc2cc(C)[nH]c3ccc4ncnc4c23)cc1`, the T/C by setting is: (dose: 50.0 mg/kg/injection, schedule: Q04DX004 (sc), vehicle: saline with Tween-80) 95 % of control; (dose: 100.0 mg/kg/injection, schedule: Q04DX004 (sc), vehicle: saline with Tween-80) 68 % of control; (dose: 200.0 mg/kg/injection, schedule: Q04DX004 (sc), vehicle: saline with Tween-80) 79 % of control.
With `CN(C)N=Nc1cn[nH]c1C(N)=O`, the T/C by setting is: under setting [2], 85 % of control; under setting [3], 67 % of control; under setting [4], 74 % of control.
Regarding `CCCCn1cnc2c(=S)nc[nH]c21`, the T/C is 68 % of control (dose: 150.0 mg/kg/injection, schedule: Q04DX004 (sc), vehicle: suspension in saline); 120 % of control under setting [2]; 150 % of control under setting [3].
In the case of `CCCCCCCC(=O)N/N=C(\CO)[C@]1(O)Cc2c(O)c3c(c(O)c2[C@@H](OC2CC(N)C(O)C(C)O2)C1)C(=O)c1c(OC)cccc1C3=O` (stereo partly drawn), the T/C is, setting by setting: (dose: 31.25 mg/kg/injection, schedule: Q04DX004 (sc), vehicle: water) 2 % of control; (dose: 32.5 mg/kg/injection, schedule: Q04DX004 (sc), vehicle: water) 102 % of control; (dose: 62.5 mg/kg/injection, schedule: Q04DX004 (sc), vehicle: water) 51 % of control; (dose: 65.0 mg/kg/injection, schedule: Q04DX004 (sc), vehicle: water) 34 % of control; (dose: 130.0 mg/kg/injection, schedule: Q04DX004 (sc), vehicle: water) 46 % of control; (dose: 250.0 mg/kg/injection, schedule: Q04DX004 (sc), vehicle: water) 10 % of control. Besides, the T/C (dose: 260.0 mg/kg/injection, schedule: Q04DX004 (sc), vehicle: water) is 19 % of control.
As to `Cc1[nH]c(=O)[nH]c(=O)c1N(CCF)CCCl`, the T/C (dose: 10.0 mg/kg/injection, schedule: Q01DX010 (sc), vehicle: Klucel (hydroxypropylcellulose) (HPC)) is 117 % of control; the T/C (dose: 20.0 mg/kg/injection, schedule: Q01DX010 (sc), vehicle: Klucel (hydroxypropylcellulose) (HPC)) was 95 % of control; the T/C (dose: 40.0 mg/kg/injection, schedule: Q01DX010 (sc), vehicle: Klucel (hydroxypropylcellulose) (HPC)) was 48 % of control.
Turning to `CC[C@H]1CN2CCc3cc(OC)c(OC)cc3[C@@H]2C[C@@H]1C[C@H]1NCCc2cc(OC)c(OC)cc21`, the T/C is, setting by setting: (dose: 1.0 mg/kg/injection, schedule: Q01DX010 (sc), vehicle: saline) 92 % of control; (dose: 2.0 mg/kg/injection, schedule: Q01DX010 (sc), vehicle: saline) 166 % of control; (dose: 4.0 mg/kg/injection, schedule: Q01DX010 (sc), vehicle: saline) 90 % of control.
As for `O=NN(CCCl)C(=O)Oc1ccc(OC(=O)N(CCCl)N=O)cc1`, the T/C is, setting by setting: (dose: 37.5 mg/kg/injection, schedule: Q04DX004 (sc), vehicle: Klucel (hydroxypropylcellulose) (HPC)) 44 % of control; under setting [1], 67 % of control; (dose: 150.0 mg/kg/injection, schedule: Q04DX004 (sc), vehicle: Klucel (hydroxypropylcellulose) (HPC)) 29 % of control; (dose: 300.0 mg/kg/injection, schedule: Q04DX004 (sc), vehicle: Klucel (hydroxypropylcellulose) (HPC)) 23 % of control.
As for `ClCCCN1CCN(CCCCl)CC1`, the T/C by setting is: (dose: 62.5 mg/kg/injection, schedule: Q04DX004 (sc), vehicle: distilled water + alcohol) 52 % of control; (dose: 125.0 mg/kg/injection, schedule: Q04DX004 (sc), vehicle: distilled water + alcohol) 17 % of control.
On to `Cc1cc(=O)n2c3c(c4c(cc13)c(CN(C)C)cc(=O)n4C)OC2`, for which the T/C is 117 % of control (dose: 75.0 mg/kg/injection, schedule: Q04DX004 (sc), vehicle: saline with Tween-80) and 57 % of control (dose: 150.0 mg/kg/injection, schedule: Q04DX004 (sc), vehicle: saline with Tween-80).
For the compound `O=c1n(CC2CO2)c(=O)n(CC2CO2)c(=O)n1CC1CO1` (stereo not drawn), the T/C by setting is: (dose: 18.75 mg/kg/injection, schedule: Q04DX004 (sc), vehicle: saline with Tween-80) 42 % of control; (dose: 25.0 mg/kg/injection, schedule: Q01DX010 (sc), vehicle: saline) 76 % of control; (dose: 37.5 mg/kg/injection, schedule: Q04DX004 (sc), vehicle: saline with Tween-80) 33 % of control; (dose: 50.0 mg/kg/injection, schedule: Q01DX010 (sc), vehicle: saline) 29 % of control.
